These results are taken from ChEMBL document CHEMBL3044638, “Biological evaluation of imidazole derivatives as inhibitors of hydroperoxide lyase, a key enzyme in plant volatile biosynthesis” (J Pestic Sci, 2011).

SMILES strings stand for the structures.

In one experiment the target is T1, Fatty acid hydroperoxide lyase, chloroplastic (Solanum lycopersicum, UniProt K4CF70).
T1 sequence (K4CF70 whole entry): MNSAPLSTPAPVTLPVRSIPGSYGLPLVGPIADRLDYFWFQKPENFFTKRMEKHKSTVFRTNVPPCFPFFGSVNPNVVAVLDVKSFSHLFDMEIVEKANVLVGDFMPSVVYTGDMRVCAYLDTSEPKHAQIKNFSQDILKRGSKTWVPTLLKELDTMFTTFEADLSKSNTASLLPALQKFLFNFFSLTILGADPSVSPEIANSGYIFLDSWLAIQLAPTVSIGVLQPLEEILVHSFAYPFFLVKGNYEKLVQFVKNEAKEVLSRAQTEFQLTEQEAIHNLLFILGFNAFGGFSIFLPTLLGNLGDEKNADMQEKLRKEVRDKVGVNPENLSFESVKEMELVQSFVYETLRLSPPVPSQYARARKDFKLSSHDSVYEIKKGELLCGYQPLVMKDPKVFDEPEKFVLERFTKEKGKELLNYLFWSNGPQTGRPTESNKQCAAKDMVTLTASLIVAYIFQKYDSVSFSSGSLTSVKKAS
Put plainly: Binding affinity to recombinant Solanum lycopersicum (tomato) fatty acid 13-hydroperoxide lyase by optical difference spectroscopy.
Regarding `Clc1ccc(C(Cn2ccnc2)OCc2ccccc2)c(Cl)c1` (centres undefined), the Kd came to 13.5 µM.

Another experiment addresses T1, Fatty acid hydroperoxide lyase, chloroplastic. Put plainly: Inhibition of recombinant Solanum lycopersicum (tomato) fatty acid 13-hydroperoxide lyase using (13S)-HPOT substrate by spectrophotometry.
As for `Clc1cccc(COC(Cn2ccnc2)c2ccc(Cl)cc2Cl)c1` (centres undefined), the IC50 was above 100 µM.

Consider `Clc1ccc(C(Cn2ccnc2)OCc2ccc(Cl)nc2)c(Cl)c1` (centres undefined), for which the IC50 was above 100 µM.

Regarding `Clc1ccc(C(Cn2ccnc2)OCc2ccccc2Cl)c(Cl)c1` (centres undefined), the IC50 is above 100 µM.

Regarding `Fc1cc(F)cc(COC(Cn2ccnc2)c2ccc(Cl)cc2Cl)c1` (centres undefined), the IC50 is above 100 µM.

For `Clc1ccc(C(Cn2ccnc2)OCc2cccc(Cl)c2Cl)c(Cl)c1` (centres undefined), the IC50 is 46 µM.

Regarding `Fc1ccc(COC(Cn2ccnc2)c2ccc(Cl)cc2Cl)c(F)c1` (centres undefined), the IC50 is above 100 µM.

As to `Fc1ccc(COC(Cn2ccnc2)c2ccc(Cl)cc2Cl)cc1F` (centres undefined), the IC50 is above 100 µM.

For `Clc1ccc(C(Cn2ccnc2)OCc2ccc(Cl)c(Cl)c2)c(Cl)c1` (centres undefined), the IC50 is above 100 µM.

`Clc1ccc(C(Cn2ccnc2)OCc2c(Cl)cccc2Cl)c(Cl)c1` (centres undefined) [ISOCONAZOLE]: the IC50 was above 100 µM.

For the compound `Clc1ccc(C(Cn2ccnc2)OCc2ccccc2)c(Cl)c1` (centres undefined), the IC50 is 39 µM.

`Fc1ccc(F)c(COC(Cn2ccnc2)c2ccc(Cl)cc2Cl)c1` (centres undefined): the IC50 is above 100 µM.

As for `CC(Cc1ccc(O)c(O)c1)C(C)Cc1ccc(O)c(O)c1` (centres undefined) [NORDIHYDROGUAIARETIC ACID], the IC50 came to 50 µM.

`Clc1ccc(COC(Cn2ccnc2)c2ccc(Cl)cc2Cl)c(Cl)c1` (centres undefined) [MICONAZOLE]: the IC50 was 65 µM.
